Assay results reported in patent publication EP0503710A2, “Flunarizine containing anti-neoplastic compositions” (JANSSEN PHARMACEUTICA N.V., priority 1991, dated 1992).

How the values were obtained:
[1] = tested on: murine sarcoma MO4 (semi-resistant cell line); assay: Subrenal capsule implant of MO4 tumour fragments in mice, change in tumor size at day 7; format: in vivo; conditions: daily intraperitoneal day 1 until day 6
Description: (§1) The potential of flunarizine as a potent enhancer of adriamycine (ADR) cytotoxicity in the murine sarcoma MO4 (semi-resistant cell line) "in vitro" and "in vivo" and its reversed adriamycine resistance in the P388/ADR (adriamycine resistant cell line) murine leukemia "in vivo"can be demostrated by the following procedure.
(§2) Fragments of subcutaneously grown tumours were inserted under the renal capsule in mice and their initial size measured under a microscope. At day 7, the mice were killed and the final size of the implants determined. The change in tumor size was expressed as a percentage of the initial size, the latter considered to be 100%. Daily intraperitoneal treatment with ADR alone or in combination with flunarizine which was formulated in hydroxypropyl-β-cyclodextrin was installed from day 1 until day 6. Control animals received the vehicle hydroxypropyl-ß-cyclodextrin.

[2] = tested on: P388/ADR (adriamycine resistant cell line) murine leukemia; assay: Subrenal capsule implant of P388/ADR tumour fragments in mice, change in tumor size at day 7; format: in vivo; conditions: P388/ADR implants under renal capsule, monotherapy, daily intraperitoneal day 1 until day 6
Description: as §1, §2

SMILES | effect on tumor growth ([1]; MO4-tumor, adriamycine alone, dosages lower than 2.5 mg/kg) | growth reduction ([1]; MO4-tumor, adriamycine alone, half the maximal tolerated dose 2.5 mg/kg) | effect on tumor growth [2] | effect on tumor growth ([1]; MO4 implants under renal capsule, flunarizine monotherapy in hydroxypropyl-β-cyclodextrin, size at day 7)
COc1cccc2c1C(=O)c1c(O)c3c(c(O)c1C2=O)C[C@@](O)(C(=O)CO)C[C@@H]3O[C@H]1C[C@H](N)[C@H](O)[C@H](C)O1 [adriamycine] | no effect | 25% | inactive | 
Fc1ccc(C(c2ccc(F)cc2)N2CCN(CC=Cc3ccccc3)CC2)cc1 [Flunarizine, 1-[bis(4-fluorophenyl)methyl]-4-(3-phenyl-2-propenyl)piperazine] |  |  | no effect | no effect
